Like-named read-outs stand apart in the source and are kept apart here.

One data set relates to CYP3A4/5. Put plainly: Time-Dependent Inactivation (TDI) assessment of CYP3A4/5. The following applies: for inactivation of CYP3A4/5 (conclusion in words): using midazolam as probe. The class given is in vitro ADME, human.
A further data set concerns Karpas-422 xenograft. Put plainly: Efficacy study in Karpas-422 xenograft model. It is filed as in vivo. The following applies: mice, p.o. BID, up to 28 days. As to the method: (§1) The animals were fed ad libitum water (reverse osmosis 1 ppm Cl) and NIH 31 Modified and Irradiated Lab Diet® consisting of 18.0% crude protein, 5.0% crude fat, and 5.0% crude fiber. The mice were housed on irradiated Enrich-o'cobs™ bedding in static microisolators on a 12-hour light cycle at 20-22° C. (68-72° F.) and 40-60% humidity. Alf procedures complied with the recommendations of the Guide for Care and Use of Laboratory Animals with respect to restraint, husbandry, surgical procedures, feed and fluid regulation, and veterinary care.
Human lymphoma cell lines line were obtained from different sources (ATCC, DSMZ), e.g., Karpas-422 obtained from DSMZ. […]
Human lymphoma cell lines, e.g., Karpas-422 cells, were harvested during mid-log phase growth, and re-suspended in […] base media and 50% Matrigel™ (BD Biosciences) (RPMI:Matrigel=1:1). […] Tumor size, in mm^3, was calculated from: […]
(§2) Mice were treated at compound doses ranging from 62.5-500 mg/kg on a BID (2 times a day every 12 h) schedule for various amounts of days by oral gavage. Each dose was delivered in a volume of 0.2 mL/20 g mouse (10 mL/kg), and adjusted for the last recorded weight of individual animals. […]
Treatment efficacy was determined on the last treatment day, MTV(n), the median tumor volume for the number of animals, n, evaluable on the last day, was determined for each group. […]

Data set [1] deals with human cytochromes P450 (CYP). Put plainly: Assessment of CYP inhibition, overall conclusion on reversible inhibition. The following applies: human liver microsomes. On the technique in general: Liver microsomes are a subcellular fraction often used to study metabolism.
Data set [2] can be described thus: Tolerability in Karpas-422 xenograft tumor bearing mice (body weight). The class given is in vivo. The following applies: Karpas-422 xenograft mice, p.o. BID, up to 28 days. As to the method: as §1
Test compounds were stored at room temperature and protected from light. On each treatment day, fresh compound formulations were prepared by suspending the powders in 0.5% sodium carboxymethylcellulose (NaCMC) and 0.1% Tween® 80 in deionized water. […]
as §2
In order to test whether a compound could induce an anti-tumor effect in vivo, Karpas-422 xenograft tumor bearing mice were treated with a compound at, e.g., 62.5, 125, 250, or 500 mg/kg BID for 28 days. […] The tumor growth over the treatment course of 28 days for vehicle and test compound treated groups was measured.

A further data set concerns CYP2B6. Put plainly: CYP induction in cryopreserved human hepatocytes, CYP2B6. As to conditions: 1 μm, 48 hours, positive control phenobarbital.
The next data set deals with CYP1A. Put plainly: CYP induction in cryopreserved human hepatocytes, CYP1A. As to conditions: 48 hours, positive control β-naphthoflavone.
A further data set has as its system WSU-DLCL2 cells. The data set is described as follows: Cell Proliferation Analysis (WSU-DLCL2, Cell Titer Glo). The class given is cell-based. As to conditions: Homo sapiens, WSUDLCL2, 6 days. For orientation: ATP-based viability assays read luminescence as a measure of living cells.
[3] abbreviates: pH 7.4, probe testosterone, time-dependent inactivation of CYP3A4/5, human liver microsomes, read-out: KI.

On to `CCN(c1cc(-c2ccc(OCCOC)cc2)cc(C(=O)NCc2c(C)cc(C)[nH]c2=O)c1C)[C@H]1CC[C@H](N(C)C)CC1` [Compound 1, N-((4,6-dimethyl-2-oxo-1,2-dihydropyridin-3-yl)methyl)-5-(((trans)-4-(dimethytamino)-cyclohexyl)(ethyl)-amino)-4′-(2-methoxyethoxy)-4-methyl-[1,1′-biphenyl]-3-carboxamide], for which the Ki amounted to 3.3 µM with CYP3A4/5 (human, human liver microsomes, pH 7.4, time-dependent inactivation of CYP3A4/5, footnote ** not given, read-out: KI (value in parentheses marked **)) and 6.4 µM in the data set with CYP3A4/5 (setting [3]). Also, in the data set on CYP3A4/5, the “inactivation of CYP3A4/5 (conclusion in words)” value (“inactivation” for short) is “time-, concentration-, and NADPII-dependent inactivation of CYP3A4/5”. Besides, the “antitumor effect in Karpas-422 xenograft model” value with Karpas-422 xenograft was “tumor stasis and regression”. The “reversible CYP inhibition (conclusion in words)” value (“reversible CYP inhibition” for short) in data set [1] is recorded as “no significant reversible inhibition”. The tolerability entry in data set [2] was “well tolerated”. Besides, in the data set with CYP2B6, the “CYP2B6 % Positive Control” value is 18.0%. The “CYP1A % Positive Control” value amounted to 2.8% with CYP1A (1 μm) and 3.0% in the data set on CYP1A (10 μm).

Broadly, the IC50 is the midpoint of a concentration-inhibition curve. Consider `CCN(c1cc(C#CCN2CCOCC2)cc(C(=O)NCc2c(C)cc(C)[nH]c2=O)c1C)[C@H]1CC[C@H](N(C)CCOC)CC1` [Compound 2, N-((4,6-dimethyl-2-oxo-1,2-dihydropyridin-3-yl)methyl)-3-(ethyl((trans)-4-((2-methoxyethyl)(methyl)amino)cyclohexyl)amino)-2-methyl-5-(3-morpholinoprop-1-yn-1-yl)benzamide], for which the Ki in the data set on CYP3A4/5 (setting [3]) was 22.3 µM. Besides, the “inactivation” value in the data set on CYP3A4/5 was “time-, concentration-, and NADPII-dependent inactivation of CYP3A4/5”. For the same molecule, the “reversible CYP inhibition” value in data set [1] is given as “no significant reversible inhibition”. In addition, inhibition in the data set on WSU-DLCL2 cells was half-maximal at 0.385 µM (IC50).

As to `CCN(c1cc(C#CC2CCN(C)CC2)cc(C(=O)NCc2c(C)cc(C)[nH]c2=O)c1C)C1CCOCC1` [Compound 105, N-((4,6-Dimethyl-2-oxo-1,2-dihydropyridin-3-yl)methyl)-3-(ethyl(tetrahydro-2H-pyran-4-yl)amino)-2-methyl-5-((1-methylpiperidin-4-yl)ethynyl)benzamide], the Ki in the data set with CYP3A4/5 (setting [3]) came out at 10.2 µM. For the same molecule, the “inactivation” value with CYP3A4/5 is “time-, concentration-, and NADPII-dependent inactivation of CYP3A4/5”. For the same molecule, the “reversible CYP inhibition” value in data set [1] was “potentially significant inhibition of CYP2D6 and CYP3A4 (midazolam)”. In addition, the “CYP1A % Positive Control” value with CYP1A (1 μm) stood at 3.0%; in the data set on CYP1A (10 μm) it was 4.4%.
